Experimental data: publication PMC6385123, “Design, Synthesis, Anticancer Evaluation and Molecular Modeling of Novel Estrogen Derivatives” (Molecules, 2019)
Read-outs that look alike come from different tables or passages of the source.

How the values were obtained:
MCF-10A cells = assay: In vitro cytotoxicity against normal non-tumorigenic cells, MTT assay; assay type: cell-based; details: normal non-tumorigenic MCF-10A cells, read-out: IC50 (Mean ± SEM) MCF-10A
Protocol: (§1) MCF-7 (human breast cancer) cells, obtained from Sigma-Aldrich Chemie GmbH, Taufkirchen, Germany, were propagated in RPMI-1640 supplemented with 10% heat inactivated FBS, 2 mM L-glutamine, and 1% standard antibiotic solution. Cells were incubated in a 5% CO2 humidified incubator at 37 °C and passaged bi-weekly. The in vitro anti-proliferative activity of the newly synthesized derivatives was assayed using standard MTT technique. Results were expressed as IC50. Experiments were repeated at least in triplicate, to obtain good reproducibility between replicate wells with standard errors below 10%. Furthermore, the cytotoxic effects of the prepared derivatives were evaluated against normal nonmalignant cells, non-tumorigenic MCF-10A, in order to find out if the synthesized derivatives have toxicity against normal cells. Additionally, results were compared with reference compounds (cisplatin and milaplatin) as positive controls.

MCF-7 cells = assay: In vitro cytotoxic activity, MTT assay, MCF-7; assay type: cell-based, human; details: MTT assay, MCF-7 cell line, read-out: IC50 (Mean ± SEM) MCF-7
Protocol: as §1

EGFR = EGFR (Homo sapiens, UniProt P00533); assay: EGFR kinase inhibition assay; assay type: biochemical; details: 8 μM ATP, poly(Glu,Tyr)4:1 substrate; read-out: IC50 (Mean ± SEM) EGFR
Protocol: (§2) The EGFR and VEGFR-2 kinase activities were assayed as previously described. The assay was performed in 96-well plates pre-coated with 20 μg mL^−1 poly (Glu, Tyr)4:1 (Sigma-Aldrich Chemie GmbH, Taufkirchen, Germany) as a substrate. In each well, 85 μL of an 8 μM ATP solution and 10 μL of the compound were added at varying concentrations. Experiments were repeated three times. Reactions started with 5 μL of different kinases and incubation for 1 h at 37 °C. Plates were 3X-washed with PBS/0.1% Tween 20. Accordingly, 100 μL of anti-phosphotyrosine (PY99; 1:500 dilutions) antibody was added, and plates were incubated for another hour at room temperature. Plates were then 3X-washed, and addition of goat anti-mouse IgG horseradish peroxidase (100 μL; 1:2000 dilution) diluted in T-PBS containing 5 mg mL^−1 BSA followed. Plates were further incubated at room temperature for another hour, and then 3X-washed. Finally, 100 μL (developing solution, 0.03% H2O2, 2 mg mL^−1 o-phenylenediamine/citrate buffer, 0.1 M, pH 5.5) was added and incubation continued until color development. The reaction was stopped by 100 μL of 2M H2SO4, and the absorption was measured at 492 nm using a multiwell spectrophotometer (VERSAmax™). The inhibition rate (%) was calculated using the equation:Inhibition rate (%) = [1 − (A492/A492Control)] × 100%(1)

[1] = molecular target: T1, p53 ubiquitination (GST-tagged HDM2) (Homo sapiens, UniProt Q00987); assay: In vitro p53 ubiquitination assay; assay type: biochemical; details: GST-tagged HDM2, p53, ubiquitin, E1 and E2 (UbcH5B); read-out: IC50 (Mean ± SEM) In Vitro p53 Ubiquitination
T1 construct: GS4b-MDM2 RING beads were prepared as above and were used in place of the full-length MDM2; made in house; host or cells: Escherichia coli BL21
Protocol: Different prepared derivatives were evaluated for their inhibitory potential against p53 ubiquitination. The method is based on incubating different compounds with GST-tagged HDM2, immobilized on glutathione-Sepharose, p53, ubiquitin, E1 and E2 (UbcH5B) ligases. The buffer contained ATP as detailed by Gomha and Abdelaziz. The reaction products were then resolved by SDSPAGE and p53 ubiquitination and were quantified by Western blotting using an anti-p53 antibody.
Briefly, rGSH-S-transferase-tagged MDM2 (GST-MDM2) was expressed in Escherichia coli BL21 cells using 1 mM isopropyl-thio-b-D-galactoside for 3 h. The enzyme was then purified on glutathione-sepharose beads (Amersham). Beads were washed with Tris (pH 7.5). The reaction contained fluorescent ubiquitin (5 µg; Invitrogen), 50 ng mammalian E1 (Enzo), 200 ng human rUbcH5B E2 (Enzo), 200 ng His-p53 (Enzo) and buffer [50 mM Tris pH 8,2 mM dithiothreitol, 5 mM MgCl2, 2 mM adenosine triphosphate (ATP)]. The MPD-compound or control mixture was dose-titrated onto GS4b-MDM2 beads. Incubation at 37 °C was followed by shaking (1200 rpm, 1 h). The reaction was terminated with 3× sodium dodecyl sulfate sample buffer. Finally, unbound fluorescent ubiquitin was drained and the total fluorescent ubiquitin signal was measured using a plate reader (Safire).
The procedure was performed similar to the aforementioned protocol except that 5 µg unlabeled ubiquitin (Enzo) was used. Following incubation, resolving of reaction products was performed using sodium dodecyl sulfate PGE. Analysis was done by western blotting using anti-p53 DO-1. For the MDM2 RING auto-ubiquitination assay, GS4b-MDM2 RING beads were prepared as above and were used in place of the full-length MDM2.

VEGFR-2 = VEGFR-2 (Homo sapiens, UniProt P35968); assay: VEGFR-2 kinase inhibition assay; assay type: biochemical; details: 8 μM ATP, poly(Glu,Tyr)4:1 substrate; read-out: IC50 (Mean ± SEM) VEGFR-2
Protocol: as §2

p53 ubiquitination = assay: In vivo ubiquitination of p53 (transfected cells); assay type: cell-based; details: cells transfected with p53, MDM2, HIS-ubiquitin; exposed 6 h; read-out: IC50 (Mean ± SEM) In Vivo p53 Ubiquitination
Protocol: In vivo ubiquitination of p53 was assayed according to [38] Cells were grown for 24 h (50% confluency) before transfection of 1 µg p53, 4 µg MDM2 and 1 µg HIS-ubiquitin with Gene Juice reagent. Grown for another 20 h, cells were exposed to prepared derivatives or controls for 6 h and MG132 for 4 h, then washed and collected in PBS, where 5% of the solution was kept as an input. The remaining pelleted cells (95% after centrifugation) were lysed in 700 µL of ubiquitin buffer A (6 M guanidinium HCl, 300 mM NaCl, 50 mM phosphate pH 8.0, 100 µg/mL N-ethylmaleimide), and sonicated for 5 min at 20% amplitude. Lysates were incubated overnight with Invitrogen Dynabeads His-Tag matrix and washed once with ubiquitin buffers A, B, C and phosphate buffered saline (ubiquitin buffer B: Mix ubiquitin buffer A and ubiquitin buffer C 1:1; ubiquitin buffer C: 300 mM NaCl, 50 mM phosphate pH 8.0, 100 µg/mL N-ethylmaleimide). The washed lysates were resolved by 8% sodium dodecyl sulfate–polyacrylamide gel electrophoresis, followed by immunoblotting with a p53 (DO-1) antibody.

Chain of VEGFR-2 (P35968 20-1356): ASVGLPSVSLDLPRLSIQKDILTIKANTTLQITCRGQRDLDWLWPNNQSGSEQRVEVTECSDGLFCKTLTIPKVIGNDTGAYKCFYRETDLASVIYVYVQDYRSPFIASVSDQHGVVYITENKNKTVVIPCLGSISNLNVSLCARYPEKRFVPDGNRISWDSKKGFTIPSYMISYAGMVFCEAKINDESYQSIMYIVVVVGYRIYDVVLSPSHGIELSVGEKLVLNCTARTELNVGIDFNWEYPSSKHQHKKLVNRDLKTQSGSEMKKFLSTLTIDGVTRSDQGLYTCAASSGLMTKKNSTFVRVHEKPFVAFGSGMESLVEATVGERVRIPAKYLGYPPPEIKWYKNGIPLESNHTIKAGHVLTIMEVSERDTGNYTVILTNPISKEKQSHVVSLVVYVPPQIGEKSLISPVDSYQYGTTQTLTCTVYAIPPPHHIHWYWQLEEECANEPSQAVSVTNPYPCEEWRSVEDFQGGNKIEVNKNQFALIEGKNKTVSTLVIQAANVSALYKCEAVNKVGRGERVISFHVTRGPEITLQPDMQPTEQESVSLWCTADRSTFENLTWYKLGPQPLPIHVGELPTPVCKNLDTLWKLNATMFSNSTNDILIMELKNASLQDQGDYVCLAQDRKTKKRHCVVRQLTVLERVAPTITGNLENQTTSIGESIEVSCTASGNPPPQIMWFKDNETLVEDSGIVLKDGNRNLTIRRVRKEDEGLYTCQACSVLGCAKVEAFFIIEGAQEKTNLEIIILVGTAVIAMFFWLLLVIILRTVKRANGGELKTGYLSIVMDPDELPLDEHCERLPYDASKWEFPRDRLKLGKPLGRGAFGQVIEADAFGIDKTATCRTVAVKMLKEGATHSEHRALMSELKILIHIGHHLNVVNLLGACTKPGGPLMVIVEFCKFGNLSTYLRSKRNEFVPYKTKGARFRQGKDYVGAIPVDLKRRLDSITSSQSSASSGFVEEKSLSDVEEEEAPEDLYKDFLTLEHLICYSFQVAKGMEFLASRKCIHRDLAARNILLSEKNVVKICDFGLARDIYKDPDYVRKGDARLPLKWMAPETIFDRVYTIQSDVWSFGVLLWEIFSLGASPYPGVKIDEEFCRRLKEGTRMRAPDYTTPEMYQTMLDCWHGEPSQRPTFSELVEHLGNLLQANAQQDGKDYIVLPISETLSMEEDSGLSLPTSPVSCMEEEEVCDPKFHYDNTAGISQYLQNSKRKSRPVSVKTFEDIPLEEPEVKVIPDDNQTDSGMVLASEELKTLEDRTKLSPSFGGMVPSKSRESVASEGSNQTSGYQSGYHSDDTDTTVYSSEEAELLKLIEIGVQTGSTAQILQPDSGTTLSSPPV
Chain of EGFR (P00533 25-1210): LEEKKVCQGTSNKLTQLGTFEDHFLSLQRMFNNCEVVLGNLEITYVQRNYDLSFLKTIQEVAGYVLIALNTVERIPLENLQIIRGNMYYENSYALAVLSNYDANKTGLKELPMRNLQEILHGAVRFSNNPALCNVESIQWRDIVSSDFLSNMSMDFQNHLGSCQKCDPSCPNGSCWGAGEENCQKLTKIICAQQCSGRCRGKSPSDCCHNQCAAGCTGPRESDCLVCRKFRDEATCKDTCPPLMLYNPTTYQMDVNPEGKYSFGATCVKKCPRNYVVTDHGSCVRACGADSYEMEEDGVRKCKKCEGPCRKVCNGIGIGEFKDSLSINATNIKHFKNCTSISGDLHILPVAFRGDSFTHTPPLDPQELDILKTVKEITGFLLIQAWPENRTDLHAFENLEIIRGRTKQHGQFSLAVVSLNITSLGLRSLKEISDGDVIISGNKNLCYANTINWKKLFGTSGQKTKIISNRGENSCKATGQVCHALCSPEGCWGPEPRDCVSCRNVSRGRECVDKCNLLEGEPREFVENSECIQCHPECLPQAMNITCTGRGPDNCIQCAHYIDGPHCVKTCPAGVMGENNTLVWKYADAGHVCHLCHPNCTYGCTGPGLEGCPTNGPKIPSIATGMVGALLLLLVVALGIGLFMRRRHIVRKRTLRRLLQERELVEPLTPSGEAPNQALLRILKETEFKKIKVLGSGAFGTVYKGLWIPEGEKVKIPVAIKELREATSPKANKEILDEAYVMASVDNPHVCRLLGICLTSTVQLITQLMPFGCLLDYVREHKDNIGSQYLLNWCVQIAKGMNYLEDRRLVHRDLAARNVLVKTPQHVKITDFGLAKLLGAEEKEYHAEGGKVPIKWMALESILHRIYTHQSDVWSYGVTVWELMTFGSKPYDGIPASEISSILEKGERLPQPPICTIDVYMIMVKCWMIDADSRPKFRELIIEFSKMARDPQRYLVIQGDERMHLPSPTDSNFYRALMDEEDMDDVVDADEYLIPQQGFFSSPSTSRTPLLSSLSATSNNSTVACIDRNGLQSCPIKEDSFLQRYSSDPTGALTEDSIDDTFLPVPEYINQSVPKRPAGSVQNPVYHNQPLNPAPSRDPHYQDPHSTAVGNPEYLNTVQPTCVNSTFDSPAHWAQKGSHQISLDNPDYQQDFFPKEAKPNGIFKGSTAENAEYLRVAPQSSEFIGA
T1 sequence (Q00987 whole entry): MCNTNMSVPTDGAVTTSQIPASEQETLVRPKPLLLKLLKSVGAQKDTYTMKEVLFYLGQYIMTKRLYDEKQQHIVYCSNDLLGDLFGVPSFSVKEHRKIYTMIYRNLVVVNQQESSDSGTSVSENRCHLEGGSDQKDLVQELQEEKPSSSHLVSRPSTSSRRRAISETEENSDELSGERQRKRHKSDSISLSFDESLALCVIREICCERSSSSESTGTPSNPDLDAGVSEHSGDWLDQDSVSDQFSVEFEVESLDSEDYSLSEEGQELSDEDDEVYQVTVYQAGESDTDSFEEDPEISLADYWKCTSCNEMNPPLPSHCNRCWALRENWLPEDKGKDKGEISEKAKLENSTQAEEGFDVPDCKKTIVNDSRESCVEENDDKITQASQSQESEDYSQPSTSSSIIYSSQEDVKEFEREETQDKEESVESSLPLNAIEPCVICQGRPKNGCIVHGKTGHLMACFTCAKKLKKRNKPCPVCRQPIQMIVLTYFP

Row | Compound | IC50 (MCF-10A cells) [µM] | IC50 (MCF-7 cells) [µM] | IC50 (EGFR) [µM] | IC50 (MCF-10A cells; Homo sapiens) [µM] | melting point [°C] | IC50 [1] [µM] | IC50 (VEGFR-2) [µM] | IC50 (MCF-7 cells; Homo sapiens, MCF7) [µM] | IC50 (p53 ubiquitination) [µM]
1 | N.N.[Cl][Pt][Cl] [Cisplatin, reference compound] | 9.55 ± 0.54 | 13.34 ± 0.11 |  |  |  |  |  |  | 
2 | CC12CCC3c4ccc(O)cc4CCC3C1CC1=C2NC(=O)NC1c1ccccc1Cl (stereo not shown) [Compound 3a, 2′-Oxo-6′-(2-chlorophenyl)-estra-1(10),2,4,16(17)-tetraien-[17,16-d]pyrimidino-3-ol] |  |  | 0.127 ± 0.0037 | 401 ± 11.6 | 266 to 268 | 47.6 ± 0.6 | 0.047 ± 0.003 | 35.7 ± 0.4 | 0.6 ± 0.0086
3 | CC12CCC3c4ccc(O)cc4CCC3C1CC1=C2NC(=O)NC1c1ccc(Cl)cc1 (stereo not shown) [Compound 3b, Oxo-6′-(4-chlorophenyl)-estra-1(10),2,4,16(17)-tetraien-[17,16-d]pyrimidino-3-ols] |  |  | 0.155 ± 0.0051 | 422 ± 13.8 | 308 to 310 | 53.6 ± 0.78 | 0.048 ± 0.0014 | 38.6 ± 0.87 | 0.63 ± 0.0095
4 | CC12CCC3c4ccc(O)cc4CCC3C1CC1=C2NC(=S)NC1c1ccccc1Cl (stereo not shown) [Compound 4a, 2′-Thione-6′-(2-chlorophenyl)-estra-1(10),2,4,16(17)-tetraien-[17,16-d]pyrimidine-3-ol] |  |  | 0.095 ± 0.0028 | 302 ± 8.86 | 290 to 292 | 36.6 ± 0.58 | 0.037 ± 0.0026 | 28.64 ± 0.28 | 0.45 ± 0.0085
5 | CC12CCC3c4ccc(O)cc4CCC3C1CC1=C2NC(=S)NC1c1ccc(Cl)cc1 (stereo not shown) [Compound 4b, 2’-Thione-6’-(4-chlorophenyl)-estra-1(10),2,4,16(17)-tetraien-[17,16-d]-pyrimidine-3-ol] |  |  | 0.098 ± 0.0009 | 311 ± 9.59 | 333 to 335 | 45.8 ± 0.49 | 0.043 ± 0.0018 | 31.8 ± 0.39 | 0.57 ± 0.0097
6 | CC12CCC3c4ccc(O)cc4CCC3C1CC1=C2NC(=N)NC1c1ccc(Cl)cc1 (stereo not shown) [Compound 5b, 2′-Imino-6′-(4-chlorophenyl)-estra-1(10),2,4,16(17)-tetraien-[17,16-d]pyrimidino-3-ol] |  |  | 0.088 ± 0.0013 | 235 ± 7.76 | 326 to 328 | 27.6 ± 0.34 | 0.029 ± 0.0003 | 22.5 ± 0.24 | 0.31 ± 0.0053
7 | CC12CCC3c4ccc(O)cc4CCC3C1CC1=C2NC(=NC#N)NC1c1ccccc1Cl (stereo not shown) [Compound 6a, 2′-Cyanoimino-6′-(2-chlorophenyl)-estra-1(10),2,4,16(17)-tetraien-[17,16-d]pyrimidino-3-ol] |  |  | 0.09 ± 0.0006 | 244 ± 7.78 | 223 | 28.47 ± 0.25 | 0.031 ± 0.0041 | 24.57 ± 0.16 | 0.32 ± 0.0063
8 | CC12CCC3c4ccc(O)cc4CCC3C1CC1=C2NC(=NC#N)NC1c1ccc(Cl)cc1 (stereo not shown) [Compound 6b, 2′-Cyanoimino-6′-(4-chlorophenyl)-estra-1(10),2,4,16(17)-tetraien-[17,16-d]-pyrimidino-3-ol] |  |  | 0.091 ± 0.0025 | 277 ± 8.23 | 282 to 284 | 29.5 ± 0.36 | 0.033 ± 0.001 | 26.46 ± 0.17 | 0.42 ± 0.0074
9 | CC12CCC3c4ccc(O)cc4CCC3C1CC1C2=NN(C(N)=O)C1c1ccccc1Cl (stereo not shown) [Compound 7a, 1-Carbamoyl-1′H-(2’H)-5′-(2-chlorophenyl)-estra-1(10),2,4-trien-[17,16-c]pyrazoline-3-ol] |  |  | 0.188 ± 0.0016 | 466 ± 17.3 | 298 to 300 | 66.7 ± 0.86 | 0.055 ± 0.0013 | 41.1 ± 0.84 | 0.86 ± 0.0068
10 | CC12CCC3c4ccc(O)cc4CCC3C1CC1C2=NN(C(N)=O)C1c1ccc(Cl)cc1 (stereo not shown) [Compound 7b, 1-Carbamoyl-1’H-(2’H)-5’-(4-chlorophenyl)-estra-1(10),2,4-trien-[17,16-c]pyrazoline-3-ol] |  |  | 0.227 ± 0.0004 | 512 ± 16.6 | 248 to 250 | 77.6 ± 0.97 | 0.057 ± 0.0005 | 46.2 ± 0.93 | 0.89 ± 0.0099
11 | CC12CCC3c4ccc(O)cc4CCC3C1CC1C2=NN(C(N)=S)C1c1ccccc1Cl (stereo not shown) [Compound 8a, 1-Thiocarbamoyl-1′H-(2′H)-5′-(2-chlorophenyl)-estra-1(10),2,4-trien-[17,16-c]pyrazoline-3-ol] |  |  | 0.166 ± 0.0028 | 435 ± 14.6 | 294 to 296 | 55.4 ± 0.69 | 0.051 ± 0.0017 | 39.5 ± 0.75 | 0.74 ± 0.0087
12 | Oc1cc(O)c2cc(O)c(-c3cc(O)c(O)c(O)c3)[o+]c2c1 [Delphinidin, reference compound] |  |  | 6.27 ± 0.00076 |  |  |  | 5.09 ± 0.0012 |  | 
13 | Milaplatin [reference compound] | 18.3 ± 0.34 | 18.43 ± 0.13 |  |  |  |  |  |  | 
